This note sets out measurements from patent publication US9016829B2, “Ink composition, ink set, and image forming method” (FUJIFILM Corporation, priority 2011, dated 2015).

This data set is described as follows: Solubility with respect to pure water. The class given is physicochemical. The conditions noted are these: 25° C.

Consider `CC(C)(O)C(=O)c1ccc(OCCO)cc1` [IRGACURE 2959], for which the “solubility with respect to pure water” value is reported as “water (25° C.): 7.6 g/l)”.
